“And” between values parts separate entries of the source, which are not always exact repeats. Identical values can stand only once. Toxic doses and inconclusive results are not listed. The calls were made as follows: active = survival T/C of 150% or more; inactive = T/C below 125% in these data.
Test system: BDF1 mice, B16 melanoma ip, median survival T/C
Experiment: NCI In Vivo Anticancer Drug Screen. Data for tumor model B16 Melanoma (intraperitoneal) in B6D2F1 (BDF1) mice
Settings: endpoint: median survival time, higher = longer survival
In short: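 Mice with transplantable tumors; drug vs vehicle groups; endpoint survival or tumor size; value = T/C.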

[1] = dose: 25.0 mg/kg/injection, schedule: Q01DX009 (ip), vehicle: saline with Tween-80
[2] = dose: 50.0 mg/kg/injection, schedule: Q01DX009 (ip), vehicle: saline with Tween-80
[3] = dose: 100.0 mg/kg/injection, schedule: Q01DX009 (ip), vehicle: saline with Tween-80
[4] = dose: 100.0 mg/kg/injection, schedule: Q04DX003 (ip), vehicle: Klucel (hydroxypropylcellulose) (HPC)
[5] = dose: 200.0 mg/kg/injection, schedule: Q04DX003 (ip), vehicle: Klucel (hydroxypropylcellulose) (HPC)
[6] = dose: 400.0 mg/kg/injection, schedule: Q04DX003 (ip), vehicle: Klucel (hydroxypropylcellulose) (HPC)
[7] = dose: 6.25 mg/kg/injection, schedule: Q01DX009 (ip), vehicle: saline with Tween-80
[8] = dose: 3.12 mg/kg/injection, schedule: Q04DX003 (ip), vehicle: saline
[9] = dose: 6.25 mg/kg/injection, schedule: Q04DX003 (ip), vehicle: saline
[10] = dose: 12.5 mg/kg/injection, schedule: Q04DX003 (ip), vehicle: saline
[11] = dose: 25.0 mg/kg/injection, schedule: Q01DX009 (ip), vehicle: saline
[12] = dose: 50.0 mg/kg/injection, schedule: Q01DX009 (ip), vehicle: saline
[13] = dose: 100.0 mg/kg/injection, schedule: Q01DX009 (ip), vehicle: Klucel (hydroxypropylcellulose) (HPC)
[14] = dose: 200.0 mg/kg/injection, schedule: Q01DX009 (ip), vehicle: Klucel (hydroxypropylcellulose) (HPC)
[15] = dose: 400.0 mg/kg/injection, schedule: Q01DX009 (ip), vehicle: Klucel (hydroxypropylcellulose) (HPC)
[16] = dose: 0.75 mg/kg/injection, schedule: Q01DX009 (ip), vehicle: saline with Tween-80
[17] = dose: 1.5 mg/kg/injection, schedule: Q01DX009 (ip), vehicle: saline with Tween-80
[18] = dose: 3.0 mg/kg/injection, schedule: Q01DX009 (ip), vehicle: saline with Tween-80
[19] = dose: 200.0 mg/kg/injection, schedule: Q01DX009 (ip), vehicle: saline with Tween-80
[20] = dose: 400.0 mg/kg/injection, schedule: Q01DX009 (ip), vehicle: saline with Tween-80
[21] = dose: 12.5 mg/kg/injection, schedule: Q01DX009 (ip), vehicle: saline with Tween-80

Measured: T/C

CSCCC(C#N)(CCN(C)C)c1ccccc1 (stereo not given)
inactive: [1] 113 % of control | [2] 107 % of control | [3] 111 % of control

c1ccc2c(c1)ccc1c[n+]3ccccc3cc12
inactive: dose: 0.25 mg/kg/injection, schedule: Q01DX009 (ip), vehicle: saline 114 % of control | dose: 0.5 mg/kg/injection, schedule: Q01DX009 (ip), vehicle: saline 100 % of control | dose: 1.0 mg/kg/injection, schedule: Q01DX009 (ip), vehicle: saline 97 % of control

CCCCn1cnc2c(SC)ncnc21
inactive: [1] 90 % of control and 115 % of control | [2] 87 % of control and 111 % of control | [3] 92 % of control and 115 % of control

Cc1nc(NCc2ccccc2)c2cc[nH]c2n1
inactive: dose: 0.04 mg/kg/injection, schedule: Q01DX009 (ip), vehicle: saline 116 % of control | dose: 0.09 mg/kg/injection, schedule: Q01DX009 (ip), vehicle: saline 123 % of control | dose: 0.39 mg/kg/injection, schedule: Q01DX009 (ip), vehicle: saline 113 % of control

Cc1ccc(C(=O)C(c2ccccc2)C(Cl)c2ccccc2)cc1 (stereo not given)
inactive: [4] 102 % of control | [5] 103 % of control | [6] 103 % of control

Clc1ccc2c(c1)/C(=C\c1ccnc3ccccc13)c1cc(Cl)cc(Cl)c1-2
inactive: [7] 93 % of control

O=c1[nH]cnc2ccc(Cl)cc12
inactive: dose: 37.5 mg/kg/injection, schedule: Q01DX009 (ip), vehicle: saline with Tween-80 102 % of control | dose: 75.0 mg/kg/injection, schedule: Q01DX009 (ip), vehicle: saline with Tween-80 102 % of control

CN1C(=O)OC(C)(C)C1=O
inactive: dose: 0.78 mg/kg/injection, schedule: Q04DX003 (ip), vehicle: saline 95 % of control | dose: 1.56 mg/kg/injection, schedule: Q04DX003 (ip), vehicle: saline 100 % of control | [8] 105 % of control | [9] 105 % of control | [10] 100 % of control | [11] 110 % of control | [12] 100 % of control | dose: 100.0 mg/kg/injection, schedule: Q01DX009 (ip), vehicle: saline 100 % of control | dose: 200.0 mg/kg/injection, schedule: Q01DX009 (ip), vehicle: saline 97 % of control | dose: 400.0 mg/kg/injection, schedule: Q01DX009 (ip), vehicle: saline 94 % of control

COc1ccc(NC(=O)O/N=C2\CN(S(=O)(=O)c3ccc(C)cc3)CCc3ccccc32)cc1
inactive: [4] 102 % of control | [5] 97 % of control | [6] 88 % of control

Clc1nnc(Nc2ccccc2)c2ccccc12
inactive: [13] 92 % of control | [14] 97 % of control | [15] 86 % of control

CC1(C)N=C(N)N=C(N)N1c1ccc(CCc2ccccc2)cc1
inactive: [16] 97 % of control | [17] 100 % of control | [18] 102 % of control | dose: 6.0 mg/kg/injection, schedule: Q01DX009 (ip), vehicle: saline with Tween-80 95 % of control

O=Cc1cc2c(cc1Cl)OCO2
inactive: [3] 107 % of control | [19] 101 % of control | [20] 99 % of control

COc1ccc2[nH]c3c(C)c4cc[n+](C)c(C)c4cc3c2c1
inactive: dose: 10.0 mg/kg/injection, schedule: Q04DX003 (ip), vehicle: water 113 % of control | dose: 20.0 mg/kg/injection, schedule: Q04DX003 (ip), vehicle: water 98 % of control | dose: 40.0 mg/kg/injection, schedule: Q04DX003 (ip), vehicle: water 105 % of control | dose: 80.0 mg/kg/injection, schedule: Q04DX003 (ip), vehicle: water 117 % of control

C/C(=C\c1ccc(C)cc1)[N+](=O)[O-]
inactive: [1] 89 % of control | [2] 96 % of control

CCOC(=O)c1cc(-c2ccc(Cl)cc2)nc2c(Cl)cc(Cl)cc12
inactive: [3] 101 % of control | [19] 89 % of control | [20] 88 % of control

C1COC(NC2CC3CCC2C3)=N1 (stereo not given)
inactive: [7] 107 % of control | [21] 100 % of control | [1] 100 % of control

O=C(CC1(Cl)C(F)(F)C(F)(F)C1(F)F)c1ccccc1
inactive: [16] 100 % of control | [17] 100 % of control | [18] 95 % of control | dose: 4.0 mg/kg/injection, schedule: Q04DX003 (ip), vehicle: saline 100 % of control | [21] 90 % of control | dose: 25.0 mg/kg/injection, schedule: Q04DX003 (ip), vehicle: saline with Tween-80 102 % of control

Cn1nc(-c2ccccc2)nc1[N+](=O)[O-]
inactive: [21] 100 % of control | [1] 96 % of control | [2] 106 % of control | [3] 86 % of control

Cc1ccc(Cl)cc1NC(=O)c1cccc(C(=O)Nc2cc(Cl)ccc2C)c1
inactive: dose: 50.0 mg/kg/injection, schedule: Q01DX009 (ip), vehicle: Klucel (hydroxypropylcellulose) (HPC) 96 % of control | [13] 93 % of control

CCOC(=O)/C=C(\C)Nc1ccc(F)cc1
inactive: [13] 88 % of control | [14] 97 % of control | [15] 91 % of control

CCN(CC)CCCCNc1ccc(NCCCCN(CC)CC)c2c1C(=O)c1ccccc1C2=O
inactive: [1] 105 % of control | [2] 99 % of control

C=CCC(N)Cc1ccccc1 (stereo not given)
inactive: dose: 3.12 mg/kg/injection, schedule: Q01DX009 (ip), vehicle: saline 105 % of control | [8] 112 % of control | dose: 6.25 mg/kg/injection, schedule: Q01DX009 (ip), vehicle: saline 105 % of control | [9] 105 % of control | dose: 12.5 mg/kg/injection, schedule: Q01DX009 (ip), vehicle: saline 111 % of control | [10] 97 % of control | [11] 100 % of control | dose: 25.0 mg/kg/injection, schedule: Q04DX003 (ip), vehicle: saline 100 % of control | [12] 110 % of control | dose: 50.0 mg/kg/injection, schedule: Q04DX003 (ip), vehicle: saline 100 % of control

— PubChem BioAssay AID192 (DTP/NCI, 2004)
